Experimental data as given in EP3722296B1, “DIHYDRONAPHTHYRIDINES AND RELATED COMPOUNDS USEFUL AS KINASE INHIBITORS FOR THE TREATMENT OF PROLIFERATIVE DISEASES” (Deciphera Pharmaceuticals, LLC, priority 2012, dated 2013).

Experiments:
c-KIT T670I kinase = biological target: T1, c-KIT T670I kinase (Homo sapiens, UniProt P10721, T670I); assay: c-KIT T670I kinase assay; type: biochemical; details: enzymatic assay
T1 construct: The construct contains residues T544-V976 of cKit; GST (N); TEV cleavage site (internal); purchased deCODE Biostructures
Procedure, shortened: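 Enzyme: GST-fused, N-terminally tagged cKit bearing T670I, with TEV cleavage site. Reaction started by mixing compound dilutions with reaction mix; activity read continuously over 5 h at 30 °C as loss of 340 nm absorbance from NADH consumption.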

c-KIT V654A kinase = biological target: T2, c-KIT V654A kinase (Homo sapiens, UniProt P10721, V654A); assay: c-KIT V654A Kinase Assay; type: biochemical; details: enzymatic assay, ATP 200 µM
T2 construct: residues T544-V976 with N-terminal GST fusion; purchased deCODE Biostructures
Procedure, shortened: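 Kinase activity tracked by coupled NADH consumption, monitored continuously at 340 nm over 6 h at 30 °C after serially diluted compound was mixed in to start inhibition. Enzyme used was a GST-fused, N-terminally tagged cKIT T544–V976 construct with a TEV cleavage site.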

Phospho-KIT (Tyr719) = assay: GIST48 KIT Western Blot; type: cell-based; details: GIST48 cells, 4 hours, serum-free medium; read-out: pKIT suppression by western blot analysi GIST48
Procedure, shortened: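 Phospho-KIT (Tyr719) was immunoblotted on PVDF and imaged in fluorescence mode after ECL Plus, with stripping and reprobing for total KIT. IC50 values were derived from the blot signals.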

GIST T1 cells = assay: GIST T1 Cell Proliferation Assay; type: cell-based; details: Homo sapiens, GISTT1, 72 h, 68 hours + 4 hours resazurin
c-KIT D816V kinase = biological target: T3, c-KIT D816V kinase (Homo sapiens, UniProt P10721, D816V); assay: c-KIT D816V kinase Assay; type: biochemical; details: enzymatic assay, ATP 200 uM
T3 construct: residues T544-V976 with N-terminal GST fusion; purchased deCODE Biostructures
Procedure, shortened: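 Coupled assay in which NADH oxidation was tracked as decreasing absorbance at 340 nm, continuously for 5 hours at 30 °C after adding serially diluted compound. Enzyme: cKit residues T544-V976 with N-terminal tag, GST fusion and TEV cleavage site.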

T1 sequence (P10721 544-976 T670I): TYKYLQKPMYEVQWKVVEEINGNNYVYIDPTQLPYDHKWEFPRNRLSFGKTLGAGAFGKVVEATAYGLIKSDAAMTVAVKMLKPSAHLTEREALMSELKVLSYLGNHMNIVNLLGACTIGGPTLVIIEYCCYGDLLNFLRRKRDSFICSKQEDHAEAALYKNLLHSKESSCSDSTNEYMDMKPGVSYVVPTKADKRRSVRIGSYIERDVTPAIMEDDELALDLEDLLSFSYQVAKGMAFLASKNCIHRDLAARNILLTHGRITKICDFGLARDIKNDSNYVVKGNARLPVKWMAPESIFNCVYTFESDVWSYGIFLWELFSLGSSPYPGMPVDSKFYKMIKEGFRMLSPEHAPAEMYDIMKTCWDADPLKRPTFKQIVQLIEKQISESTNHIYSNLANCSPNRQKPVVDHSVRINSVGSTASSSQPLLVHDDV
T3 sequence (P10721 544-976 D816V): as the sequence (P10721 544-976 T670I) above, with I127T, D273V counted along it
T2 sequence (P10721 544-976 V654A): as the sequence (P10721 544-976 T670I) above, with V111A, I127T counted along it

Compound	IC50 (c-KIT T670I kinase)	IC50 (c-KIT V654A kinase)	IC50 (Phospho-KIT (Tyr719))	IC50 (c-KIT D816V kinase)	IC50 (GIST T1 cells)
CCn1c(=O)c(-c2cc(NC(=O)Nc3cccc(F)c3)c(F)cc2C)cc2cnc(N)cc21 [Example 58, 1-(5-(7-amino-1-ethyl-2-oxo-1,2-dihydro-1,6-naphthyridin-3-yl)-2-fluoro-4-methylphenyl)-3-(3-fluorophenyl)urea]	10 to 100 nM	< 10 nM	100 to 1000 nM	10 to 100 nM	< 10 nM
CCn1c(=O)c(-c2cc(NC(=O)Nc3cc(F)cc(F)c3)c(F)cc2Cl)cc2cnc(NC)cc21 [Example 55, 1-(4-chloro-5-(1-ethyl-7-(methylamino)-2-oxo-1,2-dihydro-1,6-naphthyridin-3-yl)-2-fluorophenyl)-3-(3,5-difluorophenyl)urea]	10 to 100 nM	10 to 100 nM	> 1000 nM	10 to 100 nM	< 10 nM
CCn1c(=O)c(-c2cc(NC(=O)Nc3ccccc3)c(F)cc2Cl)cc2cnc(NC(=O)OC)cc21 [Example 73, methyl (3-(2-chloro-4-fluoro-5-(3-phenylureido)phenyl)-1-ethyl-2-oxo-1,2-dihydro-1,6-naphthyridin-7-yl)carbamate]	10 to 100 nM	10 to 100 nM	10 to 100 nM	< 10 nM	10 to 100 nM
CCn1c(=O)c(-c2cc(NC(=O)Nc3cccc(F)c3F)c(F)cc2Cl)cc2cnc(NC)cc21 [Example 4, 1-(4-chloro-5-(1-ethyl-7-(methylamino)-2-oxo-1,2-dihydro-1,6-naphthyridin-3-yl)-2-fluorophenyl)-3-(2,3-difluorophenyl)urea]	10 to 100 nM	< 10 nM	10 to 100 nM	10 to 100 nM	< 10 nM

Now from value to compound, other results behind:

IC50 (c-KIT T670I kinase)	IC50 (c-KIT V654A kinase)	IC50 (Phospho-KIT (Tyr719))	IC50 (c-KIT D816V kinase)	Compound	IC50 (GIST T1 cells)
< 10 nM	10 to 100 nM	> 1000 nM	10 to 100 nM	CCn1c(=O)c(-c2cc(NC(=O)Nc3cc(F)ccc3F)c(F)cc2C)cc2cnc(NC)cc21 [Example 61, 1-(2,5-difluorophenyl)-3-(5-(1-ethyl-7-(methylamino)-2-oxo-1,2-dihydro-1,6-naphthyridin-3-yl)-2-fluoro-4-methylphenyl)urea]	< 10 nM
10 to 100 nM	10 to 100 nM	10 to 100 nM	10 to 100 nM	CCn1c(=O)c(-c2cc(NC(=O)Nc3ccccc3)c(F)cc2Cl)cc2cnc(NC(=O)N3CC(O)C3)cc21 [Example 81, N-(3-(2-chloro-4-fluoro-5-(3-phenylureido)phenyl)-1-ethyl-2-oxo-1,2-dihydro-1,6-naphthyridin-7-yl)-3-hydroxyazetidine-1-carboxamide]	< 10 nM
< 10 nM	10 to 100 nM	< 10 nM	< 10 nM	CCn1c(=O)c(-c2cc(NC(=O)Nc3cc(F)cc(F)c3)c(F)cc2Cl)cc2cnc(NC(C)=O)cc21 [Example 67, N-(3-(2-chloro-5-(3-(3,5-difluorophenyl)ureido)-4-fluorophenyl)-1-ethyl-2-oxo-1,2-dihydro-1,6-naphthyridin-7-yl)acetamide]	< 10 nM
< 10 nM	< 10 nM	10 to 100 nM	< 10 nM	CCn1c(=O)c(-c2cc(NC(=O)Nc3cccc(F)c3)c(F)cc2Cl)cc2cnc(NC)cc21 [Example 24, 1-[4-chloro-5-(1-ethyl-7-methylamino-2-oxo-1,2-dihydro-[1,6]naphthyridin-3-yl)-2-fluoro-phenyl]-3-(3-fluoro-phenyl)-urea]	< 10 nM
